# Laboratory results reported in the kinase profiling compilation of Christmann-Franck et al. (2016).
# Tests used:
# Experiment in all cases: KINOMEscan competition binding
# Conditions in all cases: compound 10.0 µM
# RPS6KA2 KD1 (human) = RPS6KA2 KD1 (human) (UniProt Q15349)
# CDC42BPB (human) = CDC42BPB (human) (UniProt Q9Y5S2)
# CSNK2A2 (human) = CSNK2A2 (human) (UniProt P19784)
# CDK17 (human) = CDK17 (human) (UniProt Q00537)
# PAK7 (human) = PAK7 (human) (UniProt Q9P286)
# CHEK1 (human) = CHEK1 (human) (UniProt O14757)
# ROCK2 (human) = ROCK2 (human) (UniProt O75116)
# CDK11B (human) = CDK11B (human) (UniProt P21127)
# TNK2 (human) = TNK2 (human) (UniProt Q07912)
# STK16 (human) = STK16 (human) (UniProt O75716)
# RPS6KA5 KD1 (human) = RPS6KA5 KD1 (human) (UniProt O75582)
# MINK1 (human) = MINK1 (human) (UniProt Q8N4C8)
# PHKG2 (human) = PHKG2 (human) (UniProt P15735)
# OXSR1 (human) = OXSR1 (human) (UniProt O95747)
# DCLK3 (human) = DCLK3 (human) (UniProt Q9C098)
# CLK2 (human) = CLK2 (human) (UniProt P49760)
# MAK (human) = MAK (human) (UniProt P20794)
# EPHA2 (human) = EPHA2 (human) (UniProt P29317)
# MAP3K15 (human) = MAP3K15 (human) (UniProt Q6ZN16)
# [1] = system: MET (human), P08581 [M1250T]
# MYO3A (human) = MYO3A (human) (UniProt Q8NEV4)
# GAK (human) = GAK (human) (UniProt O14976)
# AURKC (human) = AURKC (human) (UniProt Q9UQB9)
# MAP4K4 (human) = MAP4K4 (human) (UniProt O95819)
# STK17A (human) = STK17A (human) (UniProt Q9UEE5)
# CSNK1G3 (human) = CSNK1G3 (human) (UniProt Q9Y6M4)
# EPHB4 (human) = EPHB4 (human) (UniProt P54760)
# STK10 (human) = STK10 (human) (UniProt O94804)
# MAP3K9 (human) = MAP3K9 (human) (UniProt P80192)
# MAP4K1 (human) = MAP4K1 (human) (UniProt Q92918)
# MAP3K11 (human) = MAP3K11 (human) (UniProt Q16584)
# MAPK10 (human) = MAPK10 (human) (UniProt P53779)
# NEK2 (human) = NEK2 (human) (UniProt P51955)
# DCLK1 (human) = DCLK1 (human) (UniProt O15075)
# STK3 (human) = STK3 (human) (UniProt Q13188)
# PLK4 (human) = PLK4 (human) (UniProt O00444)
# PRKD3 (human) = PRKD3 (human) (UniProt O94806)
# PIP4K2B (human) = PIP4K2B (human) (UniProt P78356)
# [2] = system: ABL1 (human), P00519 [Q252H]
# SYK (human) = SYK (human) (UniProt P43405)
# STK38L (human) = STK38L (human) (UniProt Q9Y2H1)
# MAP4K1 (human), sequence (Q92918 whole entry, looked up): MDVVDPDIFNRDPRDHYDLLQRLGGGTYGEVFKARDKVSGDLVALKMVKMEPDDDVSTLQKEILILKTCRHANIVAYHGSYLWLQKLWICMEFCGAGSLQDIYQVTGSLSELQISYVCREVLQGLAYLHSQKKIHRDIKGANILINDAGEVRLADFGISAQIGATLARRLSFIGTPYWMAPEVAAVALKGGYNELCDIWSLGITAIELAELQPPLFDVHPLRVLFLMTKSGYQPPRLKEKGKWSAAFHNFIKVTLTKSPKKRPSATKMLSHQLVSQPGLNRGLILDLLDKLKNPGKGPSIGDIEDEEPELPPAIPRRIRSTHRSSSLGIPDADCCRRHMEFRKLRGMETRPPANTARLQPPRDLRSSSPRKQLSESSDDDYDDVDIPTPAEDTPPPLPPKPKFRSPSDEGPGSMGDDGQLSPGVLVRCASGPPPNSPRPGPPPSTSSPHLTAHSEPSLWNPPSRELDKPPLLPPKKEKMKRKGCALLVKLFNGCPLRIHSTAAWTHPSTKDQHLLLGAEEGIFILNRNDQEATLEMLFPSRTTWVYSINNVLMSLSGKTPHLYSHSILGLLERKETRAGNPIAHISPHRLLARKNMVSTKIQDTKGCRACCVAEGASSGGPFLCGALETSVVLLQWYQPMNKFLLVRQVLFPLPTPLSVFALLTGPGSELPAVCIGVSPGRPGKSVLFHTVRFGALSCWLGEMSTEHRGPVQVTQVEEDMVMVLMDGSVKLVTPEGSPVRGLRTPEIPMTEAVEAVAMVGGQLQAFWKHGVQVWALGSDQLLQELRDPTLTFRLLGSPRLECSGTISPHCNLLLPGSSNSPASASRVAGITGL
# CDK11B (human), sequence (P21127 whole entry, looked up): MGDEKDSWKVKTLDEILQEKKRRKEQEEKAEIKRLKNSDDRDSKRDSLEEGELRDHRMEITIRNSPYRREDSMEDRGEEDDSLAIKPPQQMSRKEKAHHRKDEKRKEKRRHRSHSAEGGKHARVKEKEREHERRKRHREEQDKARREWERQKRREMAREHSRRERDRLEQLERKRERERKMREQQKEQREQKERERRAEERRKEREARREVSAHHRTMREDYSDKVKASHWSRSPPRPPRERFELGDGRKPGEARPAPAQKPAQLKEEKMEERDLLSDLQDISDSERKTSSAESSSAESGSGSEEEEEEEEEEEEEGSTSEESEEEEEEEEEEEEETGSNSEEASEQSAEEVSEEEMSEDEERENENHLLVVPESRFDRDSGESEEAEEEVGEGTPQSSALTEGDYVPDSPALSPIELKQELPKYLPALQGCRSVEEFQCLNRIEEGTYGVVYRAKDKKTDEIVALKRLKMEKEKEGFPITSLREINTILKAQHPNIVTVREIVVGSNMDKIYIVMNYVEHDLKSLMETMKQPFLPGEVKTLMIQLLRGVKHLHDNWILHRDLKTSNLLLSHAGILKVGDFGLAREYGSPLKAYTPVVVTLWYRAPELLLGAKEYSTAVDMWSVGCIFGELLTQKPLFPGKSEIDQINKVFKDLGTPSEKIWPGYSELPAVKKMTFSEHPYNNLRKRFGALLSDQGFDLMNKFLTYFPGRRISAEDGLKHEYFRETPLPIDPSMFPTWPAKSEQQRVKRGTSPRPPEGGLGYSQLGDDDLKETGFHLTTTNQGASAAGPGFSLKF
# PIP4K2B (human), sequence (P78356 whole entry, looked up): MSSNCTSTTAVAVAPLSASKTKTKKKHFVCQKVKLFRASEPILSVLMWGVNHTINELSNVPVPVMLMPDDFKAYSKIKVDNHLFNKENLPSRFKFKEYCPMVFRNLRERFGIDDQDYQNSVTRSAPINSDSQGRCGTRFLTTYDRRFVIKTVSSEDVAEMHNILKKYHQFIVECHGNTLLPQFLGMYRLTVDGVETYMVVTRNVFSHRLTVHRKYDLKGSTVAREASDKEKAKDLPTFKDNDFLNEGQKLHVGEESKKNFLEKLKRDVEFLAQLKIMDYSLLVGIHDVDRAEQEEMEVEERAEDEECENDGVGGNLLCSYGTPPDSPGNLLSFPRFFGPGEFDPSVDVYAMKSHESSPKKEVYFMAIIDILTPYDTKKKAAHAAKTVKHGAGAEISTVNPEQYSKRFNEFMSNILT
# CDK17 (human), sequence (Q00537 whole entry, looked up): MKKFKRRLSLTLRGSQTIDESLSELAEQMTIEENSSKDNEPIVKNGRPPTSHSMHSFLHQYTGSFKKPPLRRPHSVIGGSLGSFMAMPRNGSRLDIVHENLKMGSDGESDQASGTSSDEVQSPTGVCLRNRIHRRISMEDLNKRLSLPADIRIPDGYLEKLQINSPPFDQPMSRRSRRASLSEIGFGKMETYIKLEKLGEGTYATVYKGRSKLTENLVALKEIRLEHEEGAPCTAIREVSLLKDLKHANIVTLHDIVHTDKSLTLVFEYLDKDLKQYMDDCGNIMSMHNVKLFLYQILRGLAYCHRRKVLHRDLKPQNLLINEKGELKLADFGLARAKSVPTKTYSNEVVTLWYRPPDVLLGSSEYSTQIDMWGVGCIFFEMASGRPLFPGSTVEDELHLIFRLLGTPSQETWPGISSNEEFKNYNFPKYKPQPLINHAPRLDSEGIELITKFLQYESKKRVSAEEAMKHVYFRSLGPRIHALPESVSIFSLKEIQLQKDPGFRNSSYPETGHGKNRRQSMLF
# GAK (human), sequence (O14976 whole entry, looked up): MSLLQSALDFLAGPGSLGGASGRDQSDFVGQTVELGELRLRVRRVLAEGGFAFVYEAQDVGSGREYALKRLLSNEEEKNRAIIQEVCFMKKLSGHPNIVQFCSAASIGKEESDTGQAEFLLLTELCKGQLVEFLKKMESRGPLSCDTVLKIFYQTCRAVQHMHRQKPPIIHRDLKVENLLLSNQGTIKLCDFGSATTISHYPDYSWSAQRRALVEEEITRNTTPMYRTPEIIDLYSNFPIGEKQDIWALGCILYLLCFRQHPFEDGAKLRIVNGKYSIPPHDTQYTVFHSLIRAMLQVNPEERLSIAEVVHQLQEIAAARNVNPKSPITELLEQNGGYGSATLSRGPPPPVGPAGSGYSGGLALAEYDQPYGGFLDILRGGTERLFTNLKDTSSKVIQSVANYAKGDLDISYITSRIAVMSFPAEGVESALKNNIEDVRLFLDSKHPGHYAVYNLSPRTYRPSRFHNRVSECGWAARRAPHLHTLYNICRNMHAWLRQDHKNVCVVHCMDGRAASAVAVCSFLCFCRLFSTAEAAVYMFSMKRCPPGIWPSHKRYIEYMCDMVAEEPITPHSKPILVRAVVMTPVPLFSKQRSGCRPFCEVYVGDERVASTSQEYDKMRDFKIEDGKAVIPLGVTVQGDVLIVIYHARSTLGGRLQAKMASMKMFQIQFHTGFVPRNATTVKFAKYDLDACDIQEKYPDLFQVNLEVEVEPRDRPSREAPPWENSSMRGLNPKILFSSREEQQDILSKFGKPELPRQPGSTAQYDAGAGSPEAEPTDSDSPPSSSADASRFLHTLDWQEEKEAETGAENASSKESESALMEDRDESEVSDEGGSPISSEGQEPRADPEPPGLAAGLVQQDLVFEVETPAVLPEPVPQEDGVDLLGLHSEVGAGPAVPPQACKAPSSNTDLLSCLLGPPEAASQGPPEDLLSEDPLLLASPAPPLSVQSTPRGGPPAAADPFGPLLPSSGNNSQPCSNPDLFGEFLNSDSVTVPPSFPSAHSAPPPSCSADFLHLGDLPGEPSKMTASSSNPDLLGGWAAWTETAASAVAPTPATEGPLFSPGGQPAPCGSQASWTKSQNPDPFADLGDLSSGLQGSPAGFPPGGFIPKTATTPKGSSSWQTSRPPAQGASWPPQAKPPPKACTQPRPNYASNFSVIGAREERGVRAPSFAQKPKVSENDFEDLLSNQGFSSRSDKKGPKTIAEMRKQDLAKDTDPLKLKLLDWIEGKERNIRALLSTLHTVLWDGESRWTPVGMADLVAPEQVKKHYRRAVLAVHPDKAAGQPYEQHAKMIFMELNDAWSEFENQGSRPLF
# RPS6KA5 KD1 (human), sequence (O75582 whole entry, looked up): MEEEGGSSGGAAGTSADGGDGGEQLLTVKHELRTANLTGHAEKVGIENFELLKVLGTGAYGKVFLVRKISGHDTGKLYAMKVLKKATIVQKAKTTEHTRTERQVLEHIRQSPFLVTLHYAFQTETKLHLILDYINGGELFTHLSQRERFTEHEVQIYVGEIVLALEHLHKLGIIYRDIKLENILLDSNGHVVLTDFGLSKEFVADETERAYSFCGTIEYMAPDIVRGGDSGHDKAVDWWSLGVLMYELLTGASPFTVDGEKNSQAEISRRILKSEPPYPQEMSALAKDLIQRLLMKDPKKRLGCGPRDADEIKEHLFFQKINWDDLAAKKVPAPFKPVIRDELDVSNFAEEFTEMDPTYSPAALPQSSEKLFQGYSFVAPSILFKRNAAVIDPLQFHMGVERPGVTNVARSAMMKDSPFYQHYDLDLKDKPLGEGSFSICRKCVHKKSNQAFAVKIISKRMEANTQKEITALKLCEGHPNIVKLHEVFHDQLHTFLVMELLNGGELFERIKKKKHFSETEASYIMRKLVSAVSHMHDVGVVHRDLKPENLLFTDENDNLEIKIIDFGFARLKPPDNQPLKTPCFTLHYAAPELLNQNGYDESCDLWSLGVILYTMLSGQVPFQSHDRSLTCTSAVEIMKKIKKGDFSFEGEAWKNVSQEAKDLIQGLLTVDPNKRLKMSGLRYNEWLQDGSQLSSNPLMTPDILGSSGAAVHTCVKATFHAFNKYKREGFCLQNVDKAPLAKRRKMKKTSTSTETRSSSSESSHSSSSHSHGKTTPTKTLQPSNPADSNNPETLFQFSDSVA
# CSNK2A2 (human), sequence (P19784 whole entry, looked up): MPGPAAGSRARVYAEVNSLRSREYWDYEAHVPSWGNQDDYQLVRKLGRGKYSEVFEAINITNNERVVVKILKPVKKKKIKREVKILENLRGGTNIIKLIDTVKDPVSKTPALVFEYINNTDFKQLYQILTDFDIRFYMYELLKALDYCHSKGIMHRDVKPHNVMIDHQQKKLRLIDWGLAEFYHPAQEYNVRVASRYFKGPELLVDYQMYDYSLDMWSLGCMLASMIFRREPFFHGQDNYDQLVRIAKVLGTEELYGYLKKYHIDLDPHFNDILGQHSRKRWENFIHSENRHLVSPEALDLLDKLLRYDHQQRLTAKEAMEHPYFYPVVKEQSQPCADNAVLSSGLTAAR
structure (smiles),measurement,setting,value
Cn1cc(C2=C(c3ccc(Cl)cc3Cl)C(=O)NC2=O)c2ccccc21,"kinase still bound, per cent of control",RPS6KA2 KD1 (human),73%
same,"kinase still bound, per cent of control",CDC42BPB (human),97%
same,"kinase still bound, per cent of control",CSNK2A2 (human),99%
same,"kinase still bound, per cent of control",CDK17 (human),12%
same,"kinase still bound, per cent of control",PAK7 (human),75%
same,"kinase still bound, per cent of control",CHEK1 (human),94%
same,"kinase still bound, per cent of control",ROCK2 (human),100%
same,"kinase still bound, per cent of control",CDK11B (human),100%
same,"kinase still bound, per cent of control",TNK2 (human),100%
same,"kinase still bound, per cent of control",STK16 (human),29%
same,"kinase still bound, per cent of control",RPS6KA5 KD1 (human),98%
same,"kinase still bound, per cent of control",MINK1 (human),60%
same,"kinase still bound, per cent of control",PHKG2 (human),80%
same,"kinase still bound, per cent of control",OXSR1 (human),100%
same,"kinase still bound, per cent of control",DCLK3 (human),66%
same,"kinase still bound, per cent of control",CLK2 (human),0.45%
same,"kinase still bound, per cent of control",MAK (human),20%
same,"kinase still bound, per cent of control",EPHA2 (human),100%
same,"kinase still bound, per cent of control",MAP3K15 (human),100%
same,"kinase still bound, per cent of control",[1],73%
same,"kinase still bound, per cent of control",MYO3A (human),95%
same,"kinase still bound, per cent of control",GAK (human),74%
same,"kinase still bound, per cent of control",AURKC (human),96%
same,"kinase still bound, per cent of control",MAP4K4 (human),76%
same,"kinase still bound, per cent of control",STK17A (human),16%
same,"kinase still bound, per cent of control",CSNK1G3 (human),69%
same,"kinase still bound, per cent of control",EPHB4 (human),100%
same,"kinase still bound, per cent of control",STK10 (human),97%
same,"kinase still bound, per cent of control",MAP3K9 (human),89%
same,"kinase still bound, per cent of control",MAP4K1 (human),62%
same,"kinase still bound, per cent of control",MAP3K11 (human),100%
same,"kinase still bound, per cent of control",MAPK10 (human),62%
same,"kinase still bound, per cent of control",NEK2 (human),85%
same,"kinase still bound, per cent of control",DCLK1 (human),100%
same,"kinase still bound, per cent of control",STK3 (human),9.9%
same,"kinase still bound, per cent of control",PLK4 (human),14%
same,"kinase still bound, per cent of control",PRKD3 (human),78%
same,"kinase still bound, per cent of control",PIP4K2B (human),86%
same,"kinase still bound, per cent of control",[2],100%
same,"kinase still bound, per cent of control",SYK (human),92%
same,"kinase still bound, per cent of control",STK38L (human),100%
Cc1cnc(-c2cnc(NCCNc3ccc(C#N)cn3)nc2-c2ccc(Cl)cc2Cl)[nH]1,"kinase still bound, per cent of control",RPS6KA2 KD1 (human),70%
same,"kinase still bound, per cent of control",CDC42BPB (human),100%
same,"kinase still bound, per cent of control",CSNK2A2 (human),100%
same,"kinase still bound, per cent of control",CDK17 (human),100%
same,"kinase still bound, per cent of control",PAK7 (human),100%
same,"kinase still bound, per cent of control",CHEK1 (human),100%
same,"kinase still bound, per cent of control",ROCK2 (human),100%
same,"kinase still bound, per cent of control",CDK11B (human),100%
same,"kinase still bound, per cent of control",TNK2 (human),100%
same,"kinase still bound, per cent of control",STK16 (human),91%
same,"kinase still bound, per cent of control",RPS6KA5 KD1 (human),98%
same,"kinase still bound, per cent of control",MINK1 (human),75%
same,"kinase still bound, per cent of control",PHKG2 (human),100%
same,"kinase still bound, per cent of control",OXSR1 (human),70%
same,"kinase still bound, per cent of control",DCLK3 (human),34%
same,"kinase still bound, per cent of control",CLK2 (human),40%
same,"kinase still bound, per cent of control",MAK (human),80%
same,"kinase still bound, per cent of control",EPHA2 (human),96%
same,"kinase still bound, per cent of control",MAP3K15 (human),100%
same,"kinase still bound, per cent of control",[1],92%
same,"kinase still bound, per cent of control",MYO3A (human),100%
same,"kinase still bound, per cent of control",GAK (human),79%
same,"kinase still bound, per cent of control",AURKC (human),92%
same,"kinase still bound, per cent of control",STK17A (human),85%
same,"kinase still bound, per cent of control",CSNK1G3 (human),56%
same,"kinase still bound, per cent of control",EPHB4 (human),100%
same,"kinase still bound, per cent of control",STK10 (human),100%
same,"kinase still bound, per cent of control",MAP3K9 (human),55%
same,"kinase still bound, per cent of control",MAP4K1 (human),100%
same,"kinase still bound, per cent of control",MAP3K11 (human),54%
same,"kinase still bound, per cent of control",MAPK10 (human),64%
same,"kinase still bound, per cent of control",NEK2 (human),72%
same,"kinase still bound, per cent of control",DCLK1 (human),100%
same,"kinase still bound, per cent of control",STK3 (human),100%
same,"kinase still bound, per cent of control",PLK4 (human),69%
same,"kinase still bound, per cent of control",PRKD3 (human),88%
same,"kinase still bound, per cent of control",PIP4K2B (human),98%
same,"kinase still bound, per cent of control",[2],100%
same,"kinase still bound, per cent of control",SYK (human),100%
same,"kinase still bound, per cent of control",STK38L (human),100%
COc1ccc(CNC(=O)Nc2ncc([N+](=O)[O-])s2)cc1,"kinase still bound, per cent of control",RPS6KA2 KD1 (human),100%
same,"kinase still bound, per cent of control",CDC42BPB (human),75%
same,"kinase still bound, per cent of control",CSNK2A2 (human),100%
same,"kinase still bound, per cent of control",CDK17 (human),79%
same,"kinase still bound, per cent of control",PAK7 (human),96%
same,"kinase still bound, per cent of control",CHEK1 (human),100%
same,"kinase still bound, per cent of control",ROCK2 (human),100%
same,"kinase still bound, per cent of control",CDK11B (human),100%
same,"kinase still bound, per cent of control",TNK2 (human),96%
same,"kinase still bound, per cent of control",STK16 (human),28%
same,"kinase still bound, per cent of control",RPS6KA5 KD1 (human),100%
same,"kinase still bound, per cent of control",MINK1 (human),86%
same,"kinase still bound, per cent of control",OXSR1 (human),100%
same,"kinase still bound, per cent of control",DCLK3 (human),66%
same,"kinase still bound, per cent of control",CLK2 (human),73%
same,"kinase still bound, per cent of control",MAK (human),94%
same,"kinase still bound, per cent of control",EPHA2 (human),95%
same,"kinase still bound, per cent of control",MAP3K15 (human),100%
same,"kinase still bound, per cent of control",[1],93%
same,"kinase still bound, per cent of control",MYO3A (human),100%
same,"kinase still bound, per cent of control",GAK (human),98%
same,"kinase still bound, per cent of control",AURKC (human),92%
same,"kinase still bound, per cent of control",MAP4K4 (human),92%
same,"kinase still bound, per cent of control",STK17A (human),80%
same,"kinase still bound, per cent of control",CSNK1G3 (human),59%
same,"kinase still bound, per cent of control",EPHB4 (human),100%
same,"kinase still bound, per cent of control",STK10 (human),100%
same,"kinase still bound, per cent of control",MAP4K1 (human),98%
same,"kinase still bound, per cent of control",MAP3K11 (human),100%
same,"kinase still bound, per cent of control",MAPK10 (human),53%
same,"kinase still bound, per cent of control",NEK2 (human),90%
same,"kinase still bound, per cent of control",DCLK1 (human),100%
same,"kinase still bound, per cent of control",STK3 (human),3.4%
same,"kinase still bound, per cent of control",PLK4 (human),99%
same,"kinase still bound, per cent of control",PRKD3 (human),100%
same,"kinase still bound, per cent of control",PIP4K2B (human),69%
same,"kinase still bound, per cent of control",[2],100%
same,"kinase still bound, per cent of control",SYK (human),100%
same,"kinase still bound, per cent of control",STK38L (human),100%
